Test results reported in patent US6872751B2, “Composition and method for augmenting or restoring the production of fetal protein in patient in need thereof” (Centre National de la Recherche Scientifique - CNRS, priority 1999, dated 2005).
“Also recorded” adds a separate entry of the source.

Legend:
utrophin [1] = test: Utrophin immunofluorescence in NXLT (normal) myotubes; type: cell-based, mouse; conditions: 48 hours
Method: (§1) A, a-h: normal cell line (NXTL). B, a′-h′: mdx cell line (XLT). The cell cultures were treated by exposure of the differentiated myotubes to drugs for 48 hours. A, a′: control cultures. B, b′: L-arginine(2.10^−3M). c, c′: SIN-1 (10^−3 M). d, d′: SIN-I (10^−3 M) +L-arginine (10^−3 M). e, e′: D-arginine (10^−3 M). f, f′: L-arginine (10^−3 M)+OQD (10^−5 M). g, g′: L-NMMA (10^−3 M). h, h′: hydroxyurea (10^−4 M).
(§2) Myotubes were obtained from normal cell line (NXLT) and mdx cell line as described by Liberona et al (1998, Muscle & Nerve, 21:902-909), and C2 myotubes as described by Inestrosa et al. (1983, Exp. Cell Res., 147:393-405).
(§3) In vitro. The cultures were treated as described previously with the exception of the second antibody labelled with fluoroscein which was diluted to 1/100 vol/vol. The incubation time was 2 hours for the first and second antibody.

utrophin [2] = test: Utrophin immunofluorescence in XLT (mdx) myotubes; type: cell-based, mouse; conditions: 48 hours
Method: as §1, §2, §3

utrophin [3] = test: Utrophin immunofluorescence in C2 myotubes; type: cell-based, mouse; conditions: C2 mice myotubes
Method: Myotubes were obtained from normal cell line (NXLT) and mdx cell line as described by Liberona et al (1998, Muscle & Nerve, 21:902-909), and C2 myotubes as described by Inestrosa et al. (1983, Exp. Cell Res., 147:393-405). In vitro. The cultures were treated as described previously with the exception of the second antibody labelled with fluoroscein which was diluted to 1/100 vol/vol. The incubation time was 2 hours for the first and second antibody.

utrophin [4] = test: Utrophin immunofluorescence in primary rat myotubes; type: cell-based
Method: as §3

utrophin [5] = test: Utrophin immunolocalisation in muscle of mdx mice treated chronically with L-arginine; type: in vivo, mouse; conditions: 200 mg/kg daily intra-peritoneal for three weeks, thigh muscles
Method: (§4) Three normal, adult mice aged 18 months (C57 BL/6 line) and three mdx mice were given a daily intra-peritoneal injection of 200 mg/kg L-arginine for three weeks. Two other groups of three adult mice were used as controls and were given a daily injection of physiological serum.
(§5) The mice were sacrificed by ether anaesthesia, the biceps femoris and the semi-tendinous muscles were quickly dissected from the hind limbs of each animal and frozen in liquid nitrogen.
(§6) In vivo. After cold fixing in methanol (−20° C. for 10 minutes) sections of […] were incubated for two hours with utrophin specific monoclonal antibody (NCL-DRP 2, Novacastra) (1/10 vol/vol) in PBS containing 0.1% saponin and 0.2% bovine albumin. The second antibody labelled with fluoroscein (N 1031, Amersham) was diluted (1/4000 vol/vol) in PBS containing 0.1% saponin and incubated for one hour.

utrophin [6] = test: Utrophin immunolocalisation in muscle of normal adult mice treated chronically with L-arginine; type: in vivo, mouse; conditions: normal adult C57 BL/6 mice, 200 mg/kg daily intra-peritoneal for three weeks, thigh muscles
Method: as §4, §5, §6

utrophin [7] = test: Utrophin immunoblot of XLT (mdx) myotubes; type: cell-based, mouse; conditions: 48 hours, 2.10^-3 M
Method: (§7) Imunoblot analysis of utrophin was conducted under control conditions (CTRL) and after 48 hours treatment with 2.10^−3 M L-arginine (L-arg).
as §2
(§8) The myotubes obtained from the NXLT, XLT and C2 lines were homogenized using a Polytron (Kinematica) in 10 mM Tris-HCl pH 6.8, 1% Triton X-100, 1% SOS, 0.5% sodium deoxycholate on ice. The quantity of total proteins was determined following the protocol for the bicinchoninic acid protein test (BCA, Pierce). Equivalent quantities of protein were separated by SOS-Page on 5% gel, then electrotransferred onto a nitrocellulose membrane (Schleicher & Schuell). The membranes were then incubated with the same monoclonal antibody directed against utrophin used for the immunofluorescence techniques (1/250 vol/vol). The fixed antibodies were detected with a Sanofi anti-mouse goat secondary antibody (1/5000 vol/vol) bound to horseradish peroxydase and developed by chemioluminescence reaction (ECL, Amersham Pharmacy Biotech).

utrophin [8] = test: Utrophin immunoblot of C2 myotubes; type: cell-based, mouse; conditions: 48 hours, 2.10^-3 M
Method: as §7, §2, §8

utrophin [9] = test: Utrophin immunoblot of NXLT myotubes; type: cell-based, mouse; conditions: 48 hours, 2.10^-3 M
Method: as §7, §2, §8

[10] = ODQ 10^-5 M with L-arginine 10^-3 M

SMILES: O=c1onc2cnc3ccccc3n12 [ODQ]
- utrophin synthesis induced by NO (labelling) (utrophin [1]; [10]): inhibited
- utrophin synthesis induced by NO (labelling) (utrophin [2]; [10]): inhibited

SMILES: NC(=O)NO [hydroxyurea]
- utrophin labelling (utrophin [1]; 10^-4 M): increases utrophin labelling in remarkable manner
- utrophin labelling (utrophin [2]; 10^-4 M): increases utrophin labelling in remarkable manner

SMILES: CNC(=N)NCCC[C@H](N)C(=O)O [L-NMMA, N^G-methyl-L-arginine]
- utrophin labelling (utrophin [1]; 10^-3 M): basal level of utrophin
- utrophin labelling (utrophin [2]; 10^-3 M): basal level of utrophin

SMILES: N=c1c[n+](N2CCOCC2)[n-]o1 [SIN-1, 3-morpholino-sydnonimine]
- utrophin labelling (utrophin [3]): increased labelling of utrophin was also observed to a lesser extent
- utrophin labelling (utrophin [1]; 10^-3 M): utrophin labelling increased
- utrophin labelling (utrophin [4]): increased labelling of utrophin was also observed to a lesser extent
- utrophin labelling (utrophin [2]; 10^-3 M): utrophin labelling increased

SMILES: N=C(N)NCCC[C@@H](N)C(=O)O [D-arginine]
- utrophin labelling (utrophin [1]; 10^-3 M): absence of any effect
- utrophin labelling (utrophin [2]; 10^-3 M): absence of any effect

SMILES: N=C(N)NCCCC(N)C(=O)O [L-arginine, 2-amino-5-guanidinovaleric acid]
- utrophin labelling (utrophin [3]): increased labelling of utrophin was also observed to a lesser extent
- utrophin labelling (utrophin [1]; 2.10^-3 M): utrophin labelling increased
- utrophin labelling (utrophin [4]): increased labelling of utrophin was also observed to a lesser extent
- utrophin at the sarcolemma (immunolocalisation) (utrophin [5]): increase in utrophin levels under the sarcolenima; also recorded: increased the utrophin level already present in the sarcolemma
- utrophin at the sarcolemma (immunolocalisation) (utrophin [6]): utrophin is seen under the sarcolemma; also recorded: utrophin was detected underneath the sarcolemma
- utrophin level (Western blot) (utrophin [7]): evident increase of utrophin
- utrophin level (Western blot) (utrophin [8]): increase in utrophin after treatment with L-arginine was confirmed
- utrophin labelling (utrophin [2]; 2.10^-3 M): utrophin labelling increased
- utrophin level (Western blot) (utrophin [9]): evident increase of utrophin
